{
  "source": "patent US9024013B2",
  "about": "“Method for purifying rocuronium bromide” (Zhejiang Huahai Pharmaceutical Co., Ltd, priority 2011, dated 2015)",
  "assay": "Storage stability at room temperature of rocuronium bromide samples (related substances by HPLC)",
  "assay_type": "physicochemical",
  "conditions": "for Impurity A, substances involved (HPLC) / Impurity C, substances involved (HPLC) / Total impurities, substances involved (HPLC) / Single unknown impurity, substances involved (HPLC): room temperature storage",
  "data": [
    {"smiles": "C=CC[N+]1([C@H]2C[C@H]3[C@@H]4CC[C@H]5C[C@H](O)[C@@H](N6CCOCC6)C[C@]5(C)[C@H]4CC[C@]3(C)[C@H]2OC(C)=O)CCCC1", "note": "[rocuronium bromide]", "values": [
      {"measurement": "hydrolyzed impurities after storage (versus USP33 limits)", "setting": "moisture 4% or more, storage period of about 10 days at room temperature", "value": "out of limits"},
      {"measurement": "levels of impurities after storage", "setting": "moisture controlled to about 0.5%, storage period of one month at room temperature", "value": "substantially unchanged"},
      {"measurement": "level of impurities after storage", "setting": "purified by the method of the invention, moisture 4% or less, preferably 0.5% or less, one month at room temperature", "value": "substantially unchanged"},
      {"measurement": "Impurity A, substances involved (HPLC)", "setting": "sample moisture 0.5%, Day 0", "value": 0.02, "unit": "%"},
      {"measurement": "Impurity C, substances involved (HPLC)", "setting": "sample moisture 0.5%, Day 0", "value": 0.06, "unit": "%"},
      {"measurement": "Total impurities, substances involved (HPLC)", "setting": "sample moisture 0.5%, Day 0", "value": 0.08, "unit": "%"},
      {"measurement": "Impurity A, substances involved (HPLC)", "setting": "sample moisture 0.5%, Day 10", "value": 0.02, "unit": "%"},
      {"measurement": "Impurity C, substances involved (HPLC)", "setting": "sample moisture 0.5%, Day 10", "value": 0.06, "unit": "%"},
      {"measurement": "Total impurities, substances involved (HPLC)", "setting": "sample moisture 0.5%, Day 10", "value": 0.08, "unit": "%"},
      {"measurement": "Impurity A, substances involved (HPLC)", "setting": "sample moisture 0.5%, Day 20", "value": 0.03, "unit": "%"},
      {"measurement": "Impurity C, substances involved (HPLC)", "setting": "sample moisture 0.5%, Day 20", "value": 0.06, "unit": "%"},
      {"measurement": "Total impurities, substances involved (HPLC)", "setting": "sample moisture 0.5%, Day 20", "value": 0.09, "unit": "%"},
      {"measurement": "Impurity A, substances involved (HPLC)", "setting": "sample moisture 0.5%, Day 30", "value": 0.03, "unit": "%"},
      {"measurement": "Impurity C, substances involved (HPLC)", "setting": "sample moisture 0.5%, Day 30", "value": 0.06, "unit": "%"},
      {"measurement": "Total impurities, substances involved (HPLC)", "setting": "sample moisture 0.5%, Day 30", "value": 0.09, "unit": "%"},
      {"measurement": "Impurity A, substances involved (HPLC)", "setting": "sample moisture 4.5%, Day 0", "value": 0.02, "unit": "%"},
      {"measurement": "Impurity C, substances involved (HPLC)", "setting": "sample moisture 4.5%, Day 0", "value": 0.06, "unit": "%"},
      {"measurement": "Total impurities, substances involved (HPLC)", "setting": "sample moisture 4.5%, Day 0", "value": 0.08, "unit": "%"},
      {"measurement": "Impurity A, substances involved (HPLC)", "setting": "sample moisture 4.5%, Day 10", "value": 0.25, "unit": "%"},
      {"measurement": "Impurity C, substances involved (HPLC)", "setting": "sample moisture 4.5%, Day 10", "value": 0.36, "unit": "%"},
      {"measurement": "Single unknown impurity, substances involved (HPLC)", "setting": "sample moisture 4.5%, Day 10", "value": 0.12, "unit": "%"},
      {"measurement": "Total impurities, substances involved (HPLC)", "setting": "sample moisture 4.5%, Day 10", "value": 0.73, "unit": "%"},
      {"measurement": "Impurity A, substances involved (HPLC)", "setting": "sample moisture 4.5%, Day 20", "value": 0.30, "unit": "%"},
      {"measurement": "Impurity C, substances involved (HPLC)", "setting": "sample moisture 4.5%, Day 20", "value": 0.40, "unit": "%"},
      {"measurement": "Single unknown impurity, substances involved (HPLC)", "setting": "sample moisture 4.5%, Day 20", "value": 0.20, "unit": "%"},
      {"measurement": "Total impurities, substances involved (HPLC)", "setting": "sample moisture 4.5%, Day 20", "value": 0.90, "unit": "%"},
      {"measurement": "Impurity A, substances involved (HPLC)", "setting": "sample moisture 4.5%, Day 30", "value": 0.35, "unit": "%"},
      {"measurement": "Impurity C, substances involved (HPLC)", "setting": "sample moisture 4.5%, Day 30", "value": 0.50, "unit": "%"},
      {"measurement": "Single unknown impurity, substances involved (HPLC)", "setting": "sample moisture 4.5%, Day 30", "value": 0.20, "unit": "%"},
      {"measurement": "Total impurities, substances involved (HPLC)", "setting": "sample moisture 4.5%, Day 30", "value": 1.05, "unit": "%"}
    ]}
  ]
}
